Data published in article PMC4496218 (Oncotarget, 2015).

What was measured:
ICAM-1 [1] = test: ICAM-1 immunohistochemistry of lung tissue; assay type: in vivo, C57BL/6 mice; conditions: UA group and high dose US597 group, P < 0.01
Description: Frozen sections (6 μm) were stained with anti-ICAM-1 antibody as previously described. ICAM-1 expression in lung tissue was performed with avidin-biotin complex (ABC) method. Results for ICAM-1 positive cells are shown as × 200 magnification.

B16-F10 cells = test: MTT cell viability assay; assay type: cell-based, murine; conditions: Mus musculus, B16-F10, 24 h, read-out: IC50, cell proliferation
Description: (§1) Cell viability was determined by detecting the absorbance at 570 nm in a microquant plate reader (Thermo Fisher), triplicate wells were analyzed at each dose.

L02 cells = test: MTT cell viability assay, normal liver cells; assay type: cell-based; conditions: L02 normal human liver cells, 24 h
Description: as §1

HepG2 cells [2] = test: Transwell matrigel invasion assay; assay type: cell-based, human; conditions: HepG2, 5 μM, 24 h; control 88 ± 5
Description: An invasion assay was carried out using 24-well plate. The […] pore-sized transwell inserts were coated with matrigel at 1 mg/mL on the upper chamber. The lower chamber was filled with medium containing 20% FBS as chemoattractant agents. The coated filter and upper chamber were laid over the lower chamber. […] After incubation for 24 h at 37°C, cells were fixed in methanol for 20 min. The cells on the inner layer were softly removed with a cotton swab, and the adherent cells on undersurface of the insert were stained with 0.1% crystal violet dye for 15 min. The filters were washed with PBS and images were taken. The invading cells were counted and photographed under a light microscope (Zeiss, Germany) at × 200 magnification. Five fields were counted per filter in each group and the experiment was conducted in triplicate.

HepG2 cells [3] = test: Wound healing migration assay; assay type: cell-based, human; conditions: HepG2, 24 h after wounding; UA 5 μM, US597 0.2, 1, 5 μM
Description: SW620, B16-F10 and HepG2 cells (5 × 10^5 cells per well) were plated in 6-well plates for 24 h, a perpendicular scratch wound was generated by scratching with a 10 μL pipette tip. […] Cells were photographed using a light microscope (Zeiss, Germany) at 0 and 24 h after the drug treatment. The distance that cells migrated through the scribed area was determined by measuring the wound width at 24 h after treatment, and subtracting it from the wound width at 0 h. Experiments were repeated at least three times.

[4] = system: nine cancer cell lines (MHCC-97H, MHCC-97L, HepG2, M619, MDA-MB-231, MCF-7, HT29, SW620, B16-F10); test: MTT cell viability assay, span over nine cancer cell lines; assay type: cell-based; conditions: 24 h, read-out: IC50 to suppress cell proliferation, span over nine cancer cell lines
Description: as §1

HUVEC cells = test: MTT cell viability assay, endothelial cells; assay type: cell-based; conditions: Homo sapiens, 24 h
Description: as §1

[5] = Toxicity in tumor metastatic mice (body weight, histopathology, blood analysis); assay type: in vivo, C57BL/6 mice; conditions: 28 days
Description: (§2) To establish the lung metastasis model, B16-F10 cells were harvested, washed with serum-free RPMI 1640 and resuspended to give the appropriate concentrations in PBS, and injected into the tail vein of C57BL/6 mice at a density of 5 × 10^4/200 μL. […] Mice weight was measured every four days for 7 times. Mice were sacrificed (n = 6) at the 28st days after tumor inoculation. The heart, liver, spleen, lung, kidney and small intestine were excised, washed with PBS, and fixed in 10% neutral buffered formalin, and these tissues were then paraffin embeddedand stained with hematoxylin and eosin (H&E). The number of surface tumor nodules was determined by visual inspection using a magnifying glass, and histological observations were performed under a microscope (Zeiss, Germany).

[6] = system: integrin α6, integrin β1, FAK, Src, paxillin and PTEN; test: Western blot of focal adhesion signaling proteins in HepG2 cells; assay type: cell-based, human; conditions: 24 h, UA 5 μM, US597 0.2, 1, 5 μM
Description: Cell dishes were washed with cold phosphate-buffered saline and treated with lysis buffer for several seconds at an ice-cold bath, and then cell lysates were clarified by centrifugation at 12,000 g for 5 min under 4°C and the supernatants were recovered. The concentrations of proteins were determined by the BCA method. Samples with equivalent amounts of proteins were resolved by SDS-PAGE using a 10% gel. Proteins were transferred to a polyvinyldene difluoride (PVDF) membrane. The membranes were washed for ten minutes with TBS (20 mM Tris, 160 mM NaCl) and were blocked by blocking solution (10 mM Tris-HCl (pH 7.4), 125 mM NaCl, 0.1% Tween 20, and 5% skim milk). The blots were washed three times with TBST(20 mM Tris, 160 mM NaCl, 0.1% Tween 20), and they were incubated with specific primary antibodies diluted 1:1000 in TBST solution overnight at 4°C. Subsequently, the blots were washed three times with TBST (20 mM Tris, 160 mM NaCl, 0.1% Tween 20), and then the blots were incubated with secondary antibody (horseradish peroxidase conjugated goat anti-rabbit-IgG) diluted 1:5000 in TBST solution for 2 h at 37°C. […] Chemiluminescent signals were generated using a Super Signal West Pico Chemiluminescent Substrate kit (Pierce), and detected by using the ChemiDoc XRS system (Bio-Rad). The target proteins expression was quantified by use of Image Lab analysis software (Bio-Rad).

ICAM-1 [7] = test: Flow cytometry of surface expression on IL-1β-stimulated HUVECs; assay type: cell-based, human; conditions: 5 μM, 24 h
Description: (§3) Cells expression of ICAM-1, VCAM-1, E-selectin, integrin α4, α5, α6 and β1 were performed via flow cytometry. […] After incubation, the cells were washed twice with PBS and collected for staining. The cells and primary antibodies were incubated at 4°C for 20 min in the dark. After washing with staining buffer, cell adhesion molecule (ICAM-1, VCAM-1 and E-selectin) and integrins (integrin α6 and β1) expression on cell-surface were measured by BD FACSAriaIII flow cytometry. The data were processed by FlowJo software and expressed as the mean fluorescent intensities.

VCAM-1 [8] = test: as above; assay type: cell-based, human; conditions: 5 μM, 24 h
Description: as §3

VCAM-1 [9] = test: qRT-PCR of mRNA in IL-1β-stimulated HUVECs; assay type: cell-based, human; conditions: IL-1β 1 ng/mL 4 h, then 24 h, 5 μM
ICAM-1 [10] = test: qRT-PCR of mRNA in IL-1β-stimulated HUVECs; assay type: cell-based, human; conditions: IL-1β 1 ng/mL 4 h, then 24 h, UA 5 μM, US597 0.2, 1, 5 μM
MHCC-97L cells = test: MTT cell viability assay; assay type: cell-based; conditions: Homo sapiens, MHCC97L, 24 h, read-out: IC50, cell proliferation
Description: as §1

MHCC-97H cells = test: MTT cell viability assay; assay type: cell-based; conditions: Homo sapiens, MHCC97H, 24 h, read-out: IC50, cell proliferation
Description: as §1

HepG2 cells [11] = test: MTT cell viability assay; assay type: cell-based; conditions: Homo sapiens, HepG2, 24 h, read-out: IC50, cell proliferation
Description: as §1

[12] = system: B16-F10 melanoma lung metastasis; test: B16-F10/C57BL/6 mouse melanoma lung metastasis model; assay type: in vivo, C57BL/6 mice; conditions: 80 mg/kg/day oral, 28 days
Description: as §2

For `C[C@H]1[C@H](C)CC[C@]2(C(=O)O)CC[C@]3(C)C(=CC[C@@H]4[C@@]5(C)CC[C@H](O)C(C)(C)[C@@H]5CC[C@]43C)[C@H]12` [UA, 3β-hydroxy-urs-12-en-28-oic acid], the “ICAM-1 expression in lung tissue vs control” value (ICAM-1 [1]) was “significantly decreased”, the IC50 (B16-F10 cells) was 31.7 µM and the IC50 (L02 cells) was 41.9 µM. For the same compound, the “average number of invaded cells” value (HepG2 cells [2]) was 75 ± 3, the “cell migration in wound healing assay” value (HepG2 cells [3]) was “showed less migration in wound area” and the IC50 [4] was 31.7 to 60.1 µM. For the same compound, the IC50 (HUVEC cells) was 51.1 µM, the LYMPH ([5]; 80 mg/Kg, normal range 0.9 – 9.3, control 6.82 ± 2.17) was 3.65 ± 1.48 × 10^9/L and the WBC ([5]; 80 mg/Kg, normal range 1.8 – 10.7, control 9.31 ± 1.28) was 7.14 ± 0.33 × 10^9/L. For the same compound, the RBC ([5]; 80 mg/Kg, normal range 6.36 – 9.42, control 9.04 ± 0.27) was 8.84 ± 2.31 × 10^12/L, the HGB ([5]; 80 mg/Kg, normal range 110.0 – 151.0, control 136.42 ± 1.15) was 131.56 ± 0.89 g/L and the PLT ([5]; 80 mg/Kg, normal range 592 – 2972, control 1583 ± 126) was 1461 ± 251 × 10^9/L. For the same compound, the animal body loss ([5]; 80 mg/kg daily oral) was “did not induce significant animal body loss”, the “histopathology of heart, liver, spleen, kidney and small intestine” value ([5]; 80 mg/kg daily oral, H&E) was “no remarkable histopathological abnormalities or lesions” and the “protein expression of integrin α6, integrin β1, FAK, Src, paxillin and PTEN” value [6] was “the effect was prominent”. For the same compound, the “ICAM-1 expression, % of control” value (ICAM-1 [7]) was “no significant effect”, the “VCAM-1 expression, % of control” value (VCAM-1 [8]) was “no significant effect” and the “VCAM-1 mRNA expression” value (VCAM-1 [9]) was “almost no change”. The “ICAM-1 mRNA expression” value (ICAM-1 [10]) was “inhibited the induction”, the IC50 (MHCC-97L cells) was 32.2 µM and the IC50 (MHCC-97H cells) was 36.1 µM. The IC50 (HepG2 cells [11]) was 33.1 µM and the “inhibitory rate, number of lung metastatic nodules” value [12] was 14.45%.
